Source: PubChem BioAssay (NCI)
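Cells were grown in 96-well plates and exposed to each compound for 48 hours at five concentrations; endpoints were interpolated linearly between bracketing concentrations, or set to the highest concentration if not reached. TGI marks complete inhibition of growth.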

How the values were obtained:
Assay in all cases: NCI tumour cell line growth inhibition, 48 h
[1] = test system: HCC-2998 colon
[2] = test system: MOLT-4 leukemia
[3] = test system: SK-MEL-5 melanoma
[4] = test system: HCT-15 colon
[5] = test system: NCI/ADR-RES ovarian
[6] = test system: UO-31 renal
[7] = test system: IGROV1 ovarian
[8] = test system: LOX IMVI melanoma
[9] = test system: SR leukemia
[10] = test system: T-47D breast
[11] = test system: UACC-62 melanoma
[12] = test system: ACHN renal
[13] = test system: NCI-H23 lung
[14] = test system: K-562 leukemia
[15] = test system: MALME-3M melanoma
[16] = test system: OVCAR-5 ovarian
[17] = test system: A498 renal
[18] = test system: NCI-H226 lung
[19] = test system: 786-0 renal
[20] = test system: HS 578T breast

**Q.** With `NC(N)=N/N=C\c1c(-c2cccc([N+](=O)[O-])c2)nc2sc(Cl)cn12` as the molecule, how does the TGI [1] read?
**A.** 4.92 µM

**Q.** And the TGI [2]?
**A.** 4.53 µM

**Q.** And the TGI [3]?
**A.** 78.2 µM

**Q.** What about the TGI [4] of the same molecule?
**A.** > 100 µM

**Q.** What about the TGI [5] of the same molecule?
**A.** > 100 µM

**Q.** And the TGI [6]?
**A.** 3.32 µM

**Q.** And the TGI [7]?
**A.** 4.05 µM

**Q.** What about the TGI [8] of the same molecule?
**A.** > 100 µM

**Q.** And the TGI [9]?
**A.** 3.07 µM

**Q.** And the TGI [10]?
**A.** 4.4 µM

**Q.** What about the TGI [11] of the same molecule?
**A.** > 100 µM

**Q.** And the TGI [12]?
**A.** > 100 µM

**Q.** And the TGI [13]?
**A.** 5.69 µM

**Q.** What about the TGI [14] of the same molecule?
**A.** > 100 µM

**Q.** And the TGI [15]?
**A.** 5.04 µM

**Q.** And the TGI [16]?
**A.** > 100 µM

**Q.** What about the TGI [17] of the same molecule?
**A.** 62.7 µM

**Q.** What about the TGI [18] of the same molecule?
**A.** > 100 µM

**Q.** And the TGI [19]?
**A.** > 100 µM

**Q.** What about the TGI [20] of the same molecule?
**A.** > 100 µM
